Where a chain is given by its changes, count along the chain named.
What was measured:
ALDH1A1 (WT) = biological target: T1, ALDH1A1 (WT) (Homo sapiens, UniProt P00352); assay: In vitro enzymatic inhibition assay, ALDH1A1 (WT); assay type: biochemical
T1 sequence (P00352 1-501): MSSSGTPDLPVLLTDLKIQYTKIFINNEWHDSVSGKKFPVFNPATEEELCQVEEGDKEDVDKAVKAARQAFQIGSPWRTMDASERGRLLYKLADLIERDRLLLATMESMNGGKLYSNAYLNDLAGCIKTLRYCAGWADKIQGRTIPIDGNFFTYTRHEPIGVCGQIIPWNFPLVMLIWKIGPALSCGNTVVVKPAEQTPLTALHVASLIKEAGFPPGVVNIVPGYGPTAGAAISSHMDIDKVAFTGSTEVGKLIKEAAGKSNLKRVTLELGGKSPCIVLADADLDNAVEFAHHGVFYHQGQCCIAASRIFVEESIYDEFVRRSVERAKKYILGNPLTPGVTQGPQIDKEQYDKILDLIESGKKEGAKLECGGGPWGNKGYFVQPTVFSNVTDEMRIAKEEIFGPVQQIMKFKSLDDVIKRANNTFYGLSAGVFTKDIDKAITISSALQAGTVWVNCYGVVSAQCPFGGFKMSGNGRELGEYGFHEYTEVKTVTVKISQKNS

ALDH1A1 (S121) = biological target: T2, ALDH1A1 (S121) (Homo sapiens, UniProt P00352, N121S); assay: In vitro enzymatic inhibition assay, ALDH1A1 (S121); assay type: biochemical
T2 sequence (P00352 1-501 N121S): T1 sequence (P00352 1-501) with N121S

ALDH2 = ALDH2 (Homo sapiens, UniProt P05091); assay: In vitro enzymatic inhibition assay, ALDH2; assay type: biochemical
Sequence of ALDH2 (P05091 18-517): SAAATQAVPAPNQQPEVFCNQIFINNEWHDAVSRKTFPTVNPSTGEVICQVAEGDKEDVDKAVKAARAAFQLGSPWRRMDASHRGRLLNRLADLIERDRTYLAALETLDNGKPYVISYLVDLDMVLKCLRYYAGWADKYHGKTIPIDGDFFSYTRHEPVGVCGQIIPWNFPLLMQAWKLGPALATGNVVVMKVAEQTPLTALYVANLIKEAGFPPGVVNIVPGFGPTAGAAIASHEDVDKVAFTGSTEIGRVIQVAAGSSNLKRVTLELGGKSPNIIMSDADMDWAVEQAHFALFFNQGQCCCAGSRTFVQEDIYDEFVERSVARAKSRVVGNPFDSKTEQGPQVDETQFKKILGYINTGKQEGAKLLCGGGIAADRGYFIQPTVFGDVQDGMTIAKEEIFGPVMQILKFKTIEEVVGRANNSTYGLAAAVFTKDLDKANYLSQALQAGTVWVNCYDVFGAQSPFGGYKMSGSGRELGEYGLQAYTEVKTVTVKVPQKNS

ALDH1A2 = biological target: T3, ALDH1A2 (Homo sapiens, UniProt O94788); assay: In vitro enzymatic inhibition assay, ALDH1A2; assay type: biochemical
T3 sequence (O94788 1-518): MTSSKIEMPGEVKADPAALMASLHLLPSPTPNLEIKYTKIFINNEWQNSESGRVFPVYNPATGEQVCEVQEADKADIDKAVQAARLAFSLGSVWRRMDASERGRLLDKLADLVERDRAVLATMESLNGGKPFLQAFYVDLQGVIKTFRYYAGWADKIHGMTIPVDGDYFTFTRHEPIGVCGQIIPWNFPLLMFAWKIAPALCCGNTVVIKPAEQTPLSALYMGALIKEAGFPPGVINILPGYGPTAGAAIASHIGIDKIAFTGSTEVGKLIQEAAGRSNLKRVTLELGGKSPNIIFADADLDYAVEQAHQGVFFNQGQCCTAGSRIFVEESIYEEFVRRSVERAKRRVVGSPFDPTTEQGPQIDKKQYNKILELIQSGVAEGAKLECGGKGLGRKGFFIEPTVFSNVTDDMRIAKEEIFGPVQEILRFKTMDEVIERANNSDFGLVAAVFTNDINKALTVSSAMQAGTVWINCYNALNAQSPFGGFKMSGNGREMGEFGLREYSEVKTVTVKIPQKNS

ALDH1A3 = biological target: T4, ALDH1A3 (Homo sapiens, UniProt P47895); assay: In vitro enzymatic inhibition assay, ALDH1A3; assay type: biochemical; conditions: 2 min incub
T4 sequence (P47895 1-512): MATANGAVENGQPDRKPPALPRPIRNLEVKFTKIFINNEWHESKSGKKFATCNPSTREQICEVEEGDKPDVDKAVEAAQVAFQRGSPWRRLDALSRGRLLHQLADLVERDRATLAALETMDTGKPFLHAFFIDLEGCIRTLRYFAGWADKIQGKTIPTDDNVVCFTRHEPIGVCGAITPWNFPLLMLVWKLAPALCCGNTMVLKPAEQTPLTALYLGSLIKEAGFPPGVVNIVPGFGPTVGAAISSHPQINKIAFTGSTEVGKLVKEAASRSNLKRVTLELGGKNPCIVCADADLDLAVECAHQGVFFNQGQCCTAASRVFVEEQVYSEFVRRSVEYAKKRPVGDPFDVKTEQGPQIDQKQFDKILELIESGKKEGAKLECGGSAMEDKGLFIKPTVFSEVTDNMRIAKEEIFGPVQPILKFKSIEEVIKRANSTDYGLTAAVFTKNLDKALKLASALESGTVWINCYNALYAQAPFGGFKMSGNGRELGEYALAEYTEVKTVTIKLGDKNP

[1] = test system: A2780 tumor cell xenografts; assay: A2780 tumor cell xenografts, tumor growth; assay type: in vivo, mice; conditions: unsorted A2780 cells, treatment from day 3
Procedure: 6-8 week old nude female mice were purchased from Charles River Laboratories. All xenograft experiments were performed with approval of the University Committee on Use and Care of Animals of the University of Michigan. To generate tumors, 7.5×10^4 unsorted A2780 cells or 7500 CD133+ sorted A2780 cells were combined with 100 μl of DPBS and 100 μl of Matrigel (BD Biosciences), and then implanted subcutaneously into bilateral axillae of each mouse. 3 days after inoculation with tumors, mice were given an intra-peritoneal injection of (1) control DMSO 40 μl, (2) Cisplatin 250 μg/ml, (3) UM #673 10 μM, or (4) Cisplatin plus UM #673 (n=9 mice per treatment group). Tumor growth was measured using calipers, and tumor volume was calculated based on the modified ellipsoid formula (L×W×W/2), where L is the length and W is the width of the tumor. The mice were euthanized when tumors reached 1.5 to 2 cm^3 and animal safety euthanasia guidelines were met. Intraperitoneal tumors were generated using 5×10^6 OVCAR8 in […] of PBS and injected I.P. 3 days after inoculation, mice were given intra-peritoneal injection of Cisplatin or Cisplatin plus UM #673.
The impact of UM673 as a single agent was evaluated. NOD/SCID mice were inoculated with 1×10^5 unsorted A2780 cells and treatment was initiated three days after tumor inoculation with either vehicle control or UM #673. […] This is consistent with other studies of CSC targeting agents.
The experiments were repeated in combination with cisplatin. In addition, xenografts from both whole cell line and FACS isolated CD133+ cells were treated.

[2] = test system: primary human tumor xenografts; assay: Primary human tumor xenografts from chemotherapy refractory ovarian cancer; assay type: in vivo, mice; conditions: treatment started at ˜500 mm^3
From the text: In order to confirm in vivo activity against primary ovarian cancers, primary human tumor xenografts were generated from a patient with chemotherapy refractory ovarian cancer. Xenografts were allowed to grow until they reached ˜500 mm^3, and then treatment with either vehicle, cisplatin or cisplatin and UM 673 was initiated. […] After discontinuation of therapy, tumor regrowth was observed after approximately 4 weeks (FIG. 5D).

[3] = test system: in vitro treated, PI-/Annexin-FACS isolated live cells; assay: Tumor initiation capacity of in vitro treated live cells injected into mice; assay type: in vivo
Procedure: An important functional aspect of a cancer stem cell is the ability to initiate tumors with limited cell numbers. In order to determine if UM673 could impact tumor initiation, cells were treated in vitro with a single dose of UM673 alone or in combination with cisplatin. Cells were allowed to recover for three days and then PI(−)/Annexin(−) live cells were faxed isolated and injected into mice. 200, 1000, or 5000 cells from each treatment group (n=4-10/group) were injected.

ALDH+ cells = assay: Time to recovery after treatment, isolated ALDH+ cells; assay type: cell-based
From the text: (§1) A. Time to recovery for SKOV3 ovarian cancer cells treated with cisplatin or combined cisplatin and ALDH inhibitor. […] Cisplatin treated ALDH+ cells required approximately 6 days to recover whereas cisplatin treated ALDH− cells required 14 days to recover.

ALDH− cells = assay: Time to recovery after treatment, isolated ALDH− cells; assay type: cell-based
From the text: as §1

SMILES: O=Cc1ccc(N2Cc3ccccc3C2)cc1 [673B]
- IC50 (ALDH1A1 (WT)): 450 ± 35 nM
- IC50 (ALDH1A1 (S121)): 1240 ± 118 nM
- IC50 (ALDH2): > 20000 nM
- IC50 (ALDH1A2): 800 ± 147 nM
- IC50 (ALDH1A3): 1340 ± 480 nM

SMILES: N.N.[Cl][Pt][Cl] [Cisplatin, reference compound]
- tumor growth [1]: modest restrictions in tumor growth
- tumor growth [2]: no effect on tumor growth
- tumor initiation (tumors/injections) ([3]; 200 cells injected): 1/4
- tumor initiation (tumors/injections) ([3]; 1000 cells injected): 4/4
- tumor initiation (tumors/injections) ([3]; 5000 cells injected): 8/8
- effect on tumor initiation capacity ([3]; compared to untreated controls): neither cisplatin or UM673 affected tumor initiation
- time to recover back to initial cell levels (ALDH+ cells): approximately 6 days
- time to recover (ALDH− cells): 14 days

SMILES: Cc1cc(N2Cc3ccccc3C2)ccc1C=O [673A]
- IC50 (ALDH1A1 (WT)): 216 ± 22 nM
- IC50 (ALDH1A1 (S121)): 230 ± 10 nM
- IC50 (ALDH2): 1680 ± 190 nM
- IC50 (ALDH1A2): 211 ± 36 nM
- IC50 (ALDH1A3): 170 ± 28 nM

Reference: patent publication US9468632B2, “Methods and compositions for targeting cancer stem cells” (The Regents of the University of Michigan, priority 2012, dated 2016)
